Measurements as given in patent publication US9642829B2, “Antifungal compound and uses thereof” (The University of Hong Kong, priority 2012, dated 2017).

Assays:
resistant isolate T-1549 = experiment: Antifungal activity compared with caspofungin and amphotericin B (FIG. 2, CLSI M44-A disc diffusion); assay type: cell-based, C. guilliermondii; conditions: resistant isolate T-1549 (FIG. 2C)
Source text: (§1) Oral Biosciences laboratory has one of the largest collections of fungal isolates, particular that of Candida species in the world. In our previous studies, we have found multidrug resistant clinical isolates of Candida species against existing antifungals. In particular, some of these strains are resistant to best antifungal agents to date such as caspofungin, amphotericin B and fluconazole. Therefore, we performed antifungal susceptibility testing for SM21 against these drug resistant Candida isolates suing CLSI M27A brothmicrodultion assay and CLSI M44-A disc diffusion assay.

Vero cell line = experiment: Cytotoxicity assay; assay type: cell-based; conditions: at effective concentration
C. tropicalis = experiment: Antifungal susceptibility (MIC/MFC), CLSI criteria; assay type: cell-based, Candida tropicalis; conditions: C. tropicalis ATCC; 0.5 McFarland inoculum (10^6 cells/ml)
Experimental: Antifungal activity of the small molecules was evaluated using USA standards, Clinical and Laboratory Standards Institute (CLSI) criteria. In brief, inocula from 24 h Candida cultures on Sabourauds's dextore agar were standardized to a turbidity equivalent of 0.5 McFarland standards at 520 nm with a spectrophotometer. The suspensions were further diluted in Rosewell Park Memorial Institute (RPMI) 1640 medium (Life technologies, New York, USA) to yield an inoculum concentration of approximately 0.5 1×10^3 to 2.5 1×10^3 cells/ml. Minimum inhibitory concentration (MIC) and minimum fungicidal concentration (MFC) assay was performed in 96-well plates (Iwaki, Tokyo, Japan) and each of the Candida species was exposed to a double dilution of SM21. Amphotericin B was used as a positive control. All the experiments were preformed three occasions with duplicates for all isolates. The plates were incubated at 35° C. for 48 h to evaluate MIC. In the case of Cryotococcus neoformans, reading were taken after 72 h. Aforementioned assay was performed for C. albicans ATCC 90028, C. albicans SC5314 and 10 C. albicans clinical isolates. Moreover, MIC/MFC determination was carried out for other fungal species such as C. glabrata, C. krusei, C. tropicalis, C. parapsilosis, C. neoformans, Aspergillus fumigates and Penicillium marneffei. […]

C. albicans [1] = experiment: Antifungal susceptibility (MIC/MFC), CLSI criteria, 96-well double dilution; assay type: cell-based, Candida albicans; conditions: for Susceptibility (MIC90): 0.5 McFarland inoculum (10^6 cells/ml)
Experimental: Antifungal activity of the small molecules was evaluated using USA standards, Clinical and Laboratory Standards Institute (CLSI) criteria. In brief, inocula from 24 h Candida cultures on Sabourauds's dextore agar were standardized to a turbidity equivalent of 0.5 McFarland standards at 520 nm with a spectrophotometer. The suspensions were further diluted in Rosewell Park Memorial Institute (RPMI) 1640 medium (Life technologies, New York, USA) to yield an inoculum concentration of approximately 0.5 1×10^3 to 2.5 1×10^3 cells/ml. Minimum inhibitory concentration (MIC) and minimum fungicidal concentration (MFC) assay was performed in 96-well plates (Iwaki, Tokyo, Japan) and each of the Candida species was exposed to a double dilution of SM21. Amphotericin B was used as a positive control. All the experiments were preformed three occasions with duplicates for all isolates. The plates were incubated at 35° C. for 48 h to evaluate MIC. In the case of Cryotococcus neoformans, reading were taken after 72 h. Aforementioned assay was performed for C. albicans ATCC 90028, C. albicans SC5314 and 10 C. albicans clinical isolates. Moreover, MIC/MFC determination was carried out for other fungal species such as C. glabrata, C. krusei, C. tropicalis, C. parapsilosis, C. neoformans, Aspergillus fumigates and Penicillium marneffei. […] Next using dose-dependent assay we tested that MIC/MFC of SM21 from 10^3 cells/ml to 10^7 cells/ml of C. albicans (Table 2). Each of the foregoing experiment was repeated on three different occasions.

C. krusei biofilms = experiment: Mono species Candida biofilm MIC, XTT assay; assay type: cell-based; conditions: 48 h C. krusei biofilms
Experimental: (§2) For instance, we have previously shown the resistance of Candida biofilms against amphotericin and caspofungin. Therefore, next using standard biofilm assays we have established in our laboratory, we examined the effect of SM21 against Candida biofilms. In brief, Candida cells were grown in SDA medium at 37° C. for 18 h. Then a loopful of the yeast was inoculated into the yeast nitrogen base (YNB; Difco) medium supplemented with 50 mM glucose in a rotary shaker at 75 rpm. After overnight broth culture, the yeasts were harvested in the late exponential growth phase and washed twice with 20 ml of phosphate buffer saline (PBS; pH 7.2. 0.1 M) prior to use in the biofilm studies. Candida biofilms were developed according to a previously published protocol. In brief, washed yeast cells were resuspended in YNB supplemented with 100 mM glucose and adjusted to an optical density of 0.38 at 520 nm (1×10^7 cells/ml). The standard cell suspension was used immediately to develop biofilms on commercially available presterilized, polystyrene, 96-well plate (IWAKI, Tokyo, Japan). At first, 100 μl of standardized cell suspension (1×10^7 cells/ml) was pipetted into each well of a microtiter plate and incubated for 1.5 h at 37° C. in a shaker at 75 rpm to permit yeast adherence to the well surface (adherence phase). For controls, a well of each microtiter plate was handled in an identical fashion except that no Candida suspension was added. Following the adhesion phase, the cell suspensions were aspirated, and each well washed with 100 μl of PBS to remove loosely adherent cells. 200 μl of YNB with 100 mM glucose were then pipetted into each of the washed wells and the plates incubated at 37° C. in a shaker at 75 rpm for 24 or 48 h. After biofilm growth phase microscopic examination of the cultures were performed to rule out contamination. Then, the suspending medium was aspirated and biofilms were washed with 100 μl PBS to remove the nonadherent cells. The stock solutions were diluted twofold with RPMI 1640 supplemented with 2% glucose to obtain SM21 concentration from 100 to 0.2 μg/ml drug concentrations. In parallel, other antifungal agents such as caspofungin (100 to 0.1 μg/ml) and amphotericin B (240 μg/ml to 0.225 μg/ml) was also prepared as describe above. A total of 100 μl of drug solution was added to the microtiter plate containing Candida biofilms. Biofilms were then incubated at 37° C. for 24 h with the antifungals and afterwards metabolic activity of fungal cells was determined by the XTT [2,3-bis(2-methoxy-4-nitro-5-sulfophenyl)-2H-tetrazolium-5-carboxanilide sodium salt] assay (17, 28). Candida biofilm MIC90 was defined as the lowest drug concentration with 90% reduction in opacity compared with the drug free control. Each experiment was repeated three times with four replicates.

C. glabrata biofilms = experiment: Mono species Candida biofilm MIC, XTT assay; assay type: cell-based; conditions: 48 h C. glabrata biofilms
Experimental: as §2

C. albicans [2] = experiment: Systemic candidiasis mouse model; assay type: in vivo; conditions: i.v. C. albicans 1×10^6 cells/mL, 100 μl; 2 μg SM21 from 3 h post-infection, twice a day for five days
Experimental: As a pilot study, we used systemic candidiasis mouse models we have established in our laboratory to evaluate the effect of SM21 against systemic Candida infection. In brief, C. albicans inoculum of 1×10^6 cells/mL was prepared in phosphate buffered saline (PBS) eight mice were infected with 100 μl of the standard inoculum size intravenously via the tail vein. Three hours after post-infection four mice (test group) were given 2 μg of SM21 and other four (control group) were given PBS. SM21 treatment was continued twice a day for five days. By five days all mice in the control group died (FIG. 8). Mice in each test group were sacrificed according to the standard guidelines and their kidney, liver, pancreas, and spleen will be harvested. The fungal burden in the tissues will be assessed according to a standard protocol. In brief, part of the excised tissues were weighed individually and homogenized in sterile saline. Aliquots of 100 μL from tissue homogenates and their dilutions were plated on Sabouraud's dextrose agar and colonies were counted after 48 h of incubation at 37° C.

[3] = tested on: C. albicans drug resistant isolate; experiment: Susceptibility of multidrug resistant clinical isolates, CLSI M27A broth microdilution; assay type: cell-based, Candida albicans; conditions: C. albicans T1675; resistant to Fluconazole, Itraconazole
Source text: as §1

CN(C)c1ccc(/C=C/c2cc(C(C)(C)C)[o+]c(C(C)(C)C)c2)cc1.[O-][Cl+3]([O-])([O-])[O-] [SM21]
Effectiveness against resistant isolate (resistant isolate T-1549): effective
Cytotoxicity (Vero cell line): no cytotoxicity
Susceptibility (MIC90) (C. tropicalis): 0.8 µg/mL
Antifungal activity against clinical isolates (C. albicans [1]; 20 C. albicans strains isolated from HIV/AIDS patients): active against all isolates
Susceptibility (MIC90) (C. albicans [1]; C. albicans ATCC 90028): 0.2 µg/mL
Susceptibility (MIC90) (C. albicans [1]; C. albicans CL1): 0.2 µg/mL
Susceptibility (MIC90) (C. albicans [1]; C. albicans CL2): 0.2 µg/mL
Susceptibility (MIC90) (C. albicans [1]; C. albicans CL3): 1.6 µg/mL
Susceptibility (MIC90) (C. albicans [1]; C. albicans CL4): 0.8 µg/mL
Susceptibility (MIC90) (C. albicans [1]; C. albicans CL5): 1.6 µg/mL
Susceptibility (MIC90) (C. albicans [1]; C. albicans CL6): 1.6 µg/mL
Susceptibility (MIC90) (C. albicans [1]; C. albicans CL7): 0.8 µg/mL
Susceptibility (MIC90) (C. albicans [1]; C. albicans CL8): 0.8 µg/mL
Susceptibility (MIC90) (C. albicans [1]; C. albicans CL9): 1.6 µg/mL
Susceptibility (MIC90) (C. albicans [1]; C. albicans CL10): 1.6 µg/mL
Susceptibility (MIC90) (C. albicans [1]; C. albicans SC5314): 0.2 µg/mL
Minimum inhibitory concentration of 48 h Candida biofilms (C. krusei biofilms): 25 µg/mL
Minimum inhibitory concentration of 48 h Candida biofilms (C. glabrata biofilms): 25 µg/mL
Survival of infected mice (C. albicans [2]): saved all the mice
MIC [3]: 0.5 µg/mL
